Reference: patent publication US10266497B2 (ABIDE THERAPEUTICS, INC., priority 2017, dated 2019)

How the values were obtained:
MAGL [1] = target: T1, MAGL (Homo sapiens, UniProt Q99685); experiment: In vitro competitive activity-based protein profiling, MAGL, human; details: for inhibition at 1 µM: read-out: MAGL % inh. 1 μM (human); for inhibition at 10 µM: read-out: MAGL % inh. (human) at 10 uM
T1 sequence (Q99685 1-303): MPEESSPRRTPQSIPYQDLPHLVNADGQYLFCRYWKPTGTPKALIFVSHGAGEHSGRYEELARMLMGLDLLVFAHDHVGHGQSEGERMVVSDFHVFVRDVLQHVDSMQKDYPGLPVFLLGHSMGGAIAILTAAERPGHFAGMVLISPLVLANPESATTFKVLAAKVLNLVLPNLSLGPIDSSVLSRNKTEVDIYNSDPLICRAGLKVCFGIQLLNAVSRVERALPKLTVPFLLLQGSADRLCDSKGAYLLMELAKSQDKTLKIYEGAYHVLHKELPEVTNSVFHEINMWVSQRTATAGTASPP

MAGL [2] = target: T2, MAGL (Mus musculus, UniProt O35678); experiment: In vitro competitive activity-based protein profiling, MAGL, mouse; details: read-out: MAGL % inh. 1 μM (mouse)
T2 sequence (O35678 1-303): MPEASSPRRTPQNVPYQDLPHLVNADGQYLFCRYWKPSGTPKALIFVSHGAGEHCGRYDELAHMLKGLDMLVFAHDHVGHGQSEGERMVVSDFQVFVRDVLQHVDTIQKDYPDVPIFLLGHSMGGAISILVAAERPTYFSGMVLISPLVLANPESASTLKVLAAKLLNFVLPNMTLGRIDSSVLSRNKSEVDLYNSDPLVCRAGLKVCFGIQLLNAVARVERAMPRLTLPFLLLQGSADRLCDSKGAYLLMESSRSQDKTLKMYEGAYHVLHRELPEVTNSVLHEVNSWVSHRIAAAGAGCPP

| SMILES | inhibition at 1 µM (MAGL [1]) [%] | inhibition at 1 µM (MAGL [2]) [%] | inhibition at 10 µM (MAGL [1]) [%] |
| --- | --- | --- | --- |
| O=C(O)c1ccn(C(=O)N2CCC3(CCCN3Cc3ccc(C(F)(F)F)cc3N3CCN4CCC[C@H]4C3)CC2)n1 [Example 418, (S)-1-(1-(2-(hexahydropyrrolo[1,2-a]pyrazin-2(1H)-yl)-4-(trifluoromethyl)benzyl)-1,8-diazaspiro[4.5]decane-8-carbonyl)-1H-pyrazole-3-carboxylic acid] | 25 to 50 | 0 to 25 | – |
| O=C(O)c1ccn(C(=O)N2CCN(Cc3cc(F)cc(Oc4cccc(Cl)c4)c3)CC2)n1 [Example 321, 1-(4-(3-(3-chlorophenoxy)-5-fluorobenzyl)piper-azine-1-carbonyl)-1H-pyrazole-3-carboxylic acid] | > 75 | > 75 | – |
| CNC(=O)c1ccn(C(=O)N2CC3CN(Cc4cccc(C(F)(F)F)c4)CC3C2)n1 (stereo not drawn) [Example 432, N-methyl-1-(5-(3-(trifluoromethyl)benzyl)octahydro-pyrrolo[3,4-c]pyrrole-2-carbonyl)-1H-pyrazole-3-carboxamide] | – | > 75 | – |
| CNC(=O)c1ccn(C(=O)N2CCC3(CCN(Cc4cc(Cl)cc(C(F)(F)F)c4)C3)C2)n1 (stereo not drawn) [Example 435, 1-(7-(3-chloro-5-(trifluoromethyl)benzyl)-2,7-diazaspiro[4.4]non-ane-2-carbonyl)-N-methyl-1H-pyrazole-3-carboxamide] | – | > 75 | – |
| O=C(O)c1ccn(C(=O)N2C[C@H]3C[C@H](Oc4cccc(-c5cscn5)c4Cl)C[C@H]3C2)n1 [Example 446, 1-(trans-5-(2-chloro-3-(thiazol-4-yl)phenoxy)octa-hydrocyclopenta[c]pyrrole-2-carbonyl)-1H-pyrazole-3-carboxylic acid] | – | > 75 | – |
| Cc1cc(CN2CCCC23CCN(C(=O)n2ccc(C(=O)O)n2)CC3)cc(C(F)(F)F)c1 [Example 303, 1-(1-(3-methyl-5-(trifluoromethyl)benzyl)-1,8-diazaspiro[4.5]decane-8-carbonyl)-1H-pyrazole-3-carboxylic acid] | – | > 75 | – |
| CNC(=O)c1ccn(C(=O)N2CC3CN(Cc4ccc(C(F)(F)F)cc4)CC3C2)n1 (stereo not drawn) [Example 425, N-methyl-1-(5-(4-(trifluoromethyl)benzyl)octahydro-pyrrolo[3,4-c]pyrrole-2-carbonyl)-1H-pyrazole-3-carboxamide] | – | > 75 | – |
| NC(=O)c1ccn(C(=O)N2CCC3(CCN(Cc4cccc(C(F)(F)F)c4)C3)C2)n1 (stereo not drawn) [Example 429, 1-(7-(3-(trifluoromethyl)benzyl)-2,7-diazaspiro[4.4]non-ane-2-carbonyl)-1H-pyrazole-3-carboxamide] | – | > 75 | – |
| NC(=O)c1ccn(C(=O)N2CCC3(CCN(Cc4ccc(Cl)cc4)C3)C2)n1 (stereo not drawn) [Example 421, 1-(7-(4-chlorobenzyl)-2,7-diazaspiro[4.4]non-ane-2-carbonyl)-1H-pyrazole-3-carboxamide] | – | > 75 | – |
| C[C@H]1CC(N(C)Cc2ccc(C(F)(F)F)cc2N2CCCC2)CCN1C(=O)n1cc(Cl)c(C(=O)O)n1 (stereo partly drawn) [Example 33, 4-Chloro-1-((2S)-2-methyl-4-(methyl(2-(pyrrolidin-1-yl)-4-(trifluoromethyl)benzyl)amino)piperidine-1-carbonyl)-1H-pyrazole-3-carboxylic Acid] | – | 50 to 75 | – |
| O=C(O)c1nn(C(=O)N2CCN(Cc3cccc(C(F)(F)F)c3N3CCOCC3)CC2)cc1Cl [Example 449, 4-chloro-1-(4-(2-morpholino-3-(trifluoromethyl)benzyl)piperazine-1-carbonyl)-1H-pyrazole-3-carboxylic acid] | – | > 75 | – |
| O=C(O)c1ccn(C(=O)N2C[C@H]3C[C@H](NCc4cccc(-c5ccccc5)c4)C[C@H]3C2)n1 [Example 273, 1-(trans-5-(([1,1′-biphenyl]-3-ylmethyl)amino)octahydrocyclopenta [c]pyrrole-2-carbonyl)-1H-pyrazole-3-carboxylic acid] | – | – | > 75 |
| CNC(=O)c1ccn(C(=O)N2CCN(Cc3ccc(Cl)cc3)CC2)n1 [Example 420, 1-(4-(4-chlorobenzyl)piper-azine-1-carbonyl)-N-methyl-1H-pyrazole-3-carboxamide] | – | > 75 | – |
| CC(C)COc1cccc(O[C@H]2C[C@@H]3CN(C(=O)n4ccc(C(=O)O)n4)C[C@@H]3C2)c1Cl [Example 448, 1-(trans-5-(2-chloro-3-isobutoxyphenoxy)octahydrocyclopenta [c]pyrrole-2-carbonyl)-1H-pyrazole-3-carboxylic acid] | – | > 75 | – |
| O=C(O)c1nn(C(=O)N2CCN(Cc3ccc(C(F)(F)F)cc3N3CCCC3)CC2)cc1Cl [Example 443, 4-chloro-1-(4-(2-(pyrrolidin-1-yl)-4-(trifluoromethyl)benzyl)piperazine-1-carbonyl)-1H-pyrazole-3-carboxylic acid] | – | > 75 | – |
| CNC(=O)c1ccn(C(=O)N2C[C@H]3C[C@@H](N(C)Cc4ccccc4C(F)(F)F)C[C@H]3C2)n1 [Example 434, N-methyl-1-(cis-5-(methyl(2-(trifluoromethyl)benzyl)amino)octa-hydrocyclopenta[c]pyrrole-2-carbonyl)-1H-pyrazole-3-carboxamide] | – | > 75 | – |
| NC(=O)c1ccn(C(=O)N2CCC3(CCN(Cc4ccc(N5CCOCC5)cc4C(F)(F)F)C3)C2)n1 (stereo not drawn) [Example 436, 1-(7-(4-morpholino-2-(trifluoromethyl)benzyl)-2,7-diazaspiro[4.4]non-ane-2-carbonyl)-1H-pyrazole-3-carboxamide] | – | > 75 | – |
| CNC(=O)c1ccn(C(=O)N2CC3CN(Cc4cc(Cl)ccc4Cl)CC3C2)n1 (stereo not drawn) [Example 430, 1-(5-(2,5-dichlorobenzyl)octa-hydropyrrolo[3,4-c]pyrrole-2-carbonyl)-N-methyl-1H-pyrazole-3-carboxamide] | – | > 75 | – |
| CNC(=O)c1ccn(C(=O)N2CC3CN(Cc4cc(Cl)cc(C(F)(F)F)c4)CC3C2)n1 (stereo not drawn) [Example 437, 1-(5-(3-chloro-5-(trifluoromethyl)benzyl)octahydro-pyrrolo[3,4-c]pyrrole-2-carbonyl)-N-methyl-1H-pyrazole-3-carboxamide] | – | > 75 | – |
| COc1cccc(O[C@H]2C[C@@H]3CN(C(=O)n4ccc(C(=O)O)n4)C[C@@H]3C2)c1Cl [Example 445, 1-(trans-5-(2-chloro-3-methoxyphenoxy)octahydrocyclopenta [c]pyrrole-2-carbonyl)-1H-pyrazole-3-carboxylic acid] | – | > 75 | – |
| CNC(=O)c1ccn(C(=O)N2CC3CN(Cc4ccc(N5CCOCC5)cc4C(F)(F)F)CC3C2)n1 (stereo not drawn) [Example 440, N-methyl-1-(5-(4-morpholino-2-(trifluoromethyl)benzyl)octahydro-pyrrolo[3,4-c]pyrrole-2-carbonyl)-1H-pyrazole-3-carboxamide] | – | > 75 | – |
| CNC(=O)c1ccn(C(=O)N2CCC3(CCN(Cc4cc(Cl)ccc4Cl)C3)C2)n1 (stereo not drawn) [Example 428, 1-(7-(2,5-dichlorobenzyl)-2,7-diazaspiro[4.4]non-ane-2-carbonyl)-N-methyl-1H-pyrazole-3-carboxamide] | – | > 75 | – |
| CNC(=O)c1ccn(C(=O)N2C[C@H]3C[C@@H](N(C)Cc4ccc(C(F)(F)F)cc4)C[C@H]3C2)n1 [Example 439, N-methyl-1-(cis-5-(methyl(4-(trifluoromethyl)benzyl)amino)octa-hydrocyclopenta[c]pyrrole-2-carbonyl)-1H-pyrazole-3-carboxamide] | – | > 75 | – |
| CNC(=O)c1ccn(C(=O)N2CCN(Cc3cccc(Oc4ccccc4)c3)CC2)n1 [Example 423, N-methyl-1-(4-(3-phenoxybenzyl)piperazine-1-carbonyl)-1H-pyrazole-3-carboxamide] | – | > 75 | – |
| Cc1cn(C(=O)N2CCN(Cc3cccc(Oc4ccc(Cl)cc4)c3)C[C@@H]2C)nc1C(=O)O [Example 442, (S)-1-(4-(3-(4-chlorophenoxy)benzyl)-2-methylpiperazine-1-carbonyl)-4-methyl-1H-pyrazole-3-carboxylic acid] | – | > 75 | – |
| O=C(O)c1ccn(C(=O)N2CCC3(CCCN3Cc3cc(Cl)cc(N4CCCC4)c3)CC2)n1 [Example 344, 1-(1-(3-chloro-5-(pyrrolidin-1-yl)benzyl)-1,8-diazaspiro[4.5]decane-8-carbonyl)-1H-pyrazole-3-carboxylic acid] | – | > 75 | – |
| O=C(O)c1ccn(C(=O)N2C[C@H]3C[C@H](OCc4cccc(-c5cscn5)c4Cl)C[C@H]3C2)n1 [Example 447, 1-(trans-5-((2-chloro-3-(thiazol-4-yl)benzyl)oxy)octa-hydrocyclopenta[c]pyrrole-2-carbonyl)-1H-pyrazole-3-carboxylic acid] | – | – | > 75 |
| NC(=O)c1ccn(C(=O)N2CCN(Cc3cccc(C4(O)CCOCC4)c3)CC2)n1 [Example 237, 1-(4-(3-(4-hydroxytetrahydro-2H-pyran-4-yl)benzyl)piperazine-1-carbonyl)-1H-pyrazole-3-carboxamide] | – | > 75 | – |
